The target in one assay is DGKα (Homo sapiens (Human), UniProt P23743). Put plainly: Biochemical DGK IC50 assay (ADP-Glo, lipid micelle substrate), DGKα. Note: full length DGKα 7.5 nM. Conditions: full length DGKα […], ATP 140 μM, DAG 80 μM. The method in brief: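 Full-length human DGKα assayed by ADP-Glo with DAG/PS lipid micelle substrate at room temperature in 50 mM HEPES, 10 mM MgCl2, 0.01% BSA, 0.1 mM Na3VO4, 0.005% Tween-20, 0.01 mM CaCl2.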
(ADP-Glo turns the ADP formed in a reaction into a luminescent signal.)

Another assay deals with DGKζ (Homo sapiens (Human), UniProt Q13574). Put plainly: Biochemical DGK IC50 assay (ADP-Glo, lipid micelle substrate), DGKζ. The note with it: full length DGKζ 0.5 nM, ATP 140 μM, DAG 80 μM. The method in brief: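 Full-length human His-TEV-tagged DGKζ, expressed in Sf9 cells and purified, was run at room temperature on DAG/PS lipid micelles in 50 mM HEPES, 10 mM MgCl2, 0.01 mM CaCl2 buffer. After 1 h reaction, ADP formed was detected by ADP-Glo luminescence. IC50s came from inhibition across increasing compound concentrations.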
Sequence of DGKζ (Q13574 other isoform, or with tags, fused parts or gaps): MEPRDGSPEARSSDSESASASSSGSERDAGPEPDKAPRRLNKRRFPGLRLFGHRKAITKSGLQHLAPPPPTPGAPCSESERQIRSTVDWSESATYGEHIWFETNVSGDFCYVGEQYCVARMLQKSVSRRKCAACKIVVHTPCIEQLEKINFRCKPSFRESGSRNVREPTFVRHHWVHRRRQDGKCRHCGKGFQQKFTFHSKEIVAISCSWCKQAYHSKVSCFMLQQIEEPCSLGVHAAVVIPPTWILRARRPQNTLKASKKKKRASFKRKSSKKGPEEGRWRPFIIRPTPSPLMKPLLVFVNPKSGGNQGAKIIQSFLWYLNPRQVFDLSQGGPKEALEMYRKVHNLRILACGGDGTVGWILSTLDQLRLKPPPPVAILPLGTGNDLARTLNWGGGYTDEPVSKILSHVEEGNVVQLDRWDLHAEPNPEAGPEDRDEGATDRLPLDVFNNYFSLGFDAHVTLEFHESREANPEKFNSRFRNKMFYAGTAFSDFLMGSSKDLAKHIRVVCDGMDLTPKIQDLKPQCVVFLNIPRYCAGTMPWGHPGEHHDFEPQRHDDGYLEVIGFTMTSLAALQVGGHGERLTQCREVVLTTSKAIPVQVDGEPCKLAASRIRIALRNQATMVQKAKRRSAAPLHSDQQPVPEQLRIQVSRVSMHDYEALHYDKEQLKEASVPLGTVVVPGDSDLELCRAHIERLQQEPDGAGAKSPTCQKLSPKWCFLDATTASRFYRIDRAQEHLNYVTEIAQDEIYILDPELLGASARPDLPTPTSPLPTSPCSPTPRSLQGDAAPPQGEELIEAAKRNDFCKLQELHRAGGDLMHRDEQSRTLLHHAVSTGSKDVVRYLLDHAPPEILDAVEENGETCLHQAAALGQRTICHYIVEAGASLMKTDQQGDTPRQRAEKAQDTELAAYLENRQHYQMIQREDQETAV

Sequence of DGKα (P23743 whole entry): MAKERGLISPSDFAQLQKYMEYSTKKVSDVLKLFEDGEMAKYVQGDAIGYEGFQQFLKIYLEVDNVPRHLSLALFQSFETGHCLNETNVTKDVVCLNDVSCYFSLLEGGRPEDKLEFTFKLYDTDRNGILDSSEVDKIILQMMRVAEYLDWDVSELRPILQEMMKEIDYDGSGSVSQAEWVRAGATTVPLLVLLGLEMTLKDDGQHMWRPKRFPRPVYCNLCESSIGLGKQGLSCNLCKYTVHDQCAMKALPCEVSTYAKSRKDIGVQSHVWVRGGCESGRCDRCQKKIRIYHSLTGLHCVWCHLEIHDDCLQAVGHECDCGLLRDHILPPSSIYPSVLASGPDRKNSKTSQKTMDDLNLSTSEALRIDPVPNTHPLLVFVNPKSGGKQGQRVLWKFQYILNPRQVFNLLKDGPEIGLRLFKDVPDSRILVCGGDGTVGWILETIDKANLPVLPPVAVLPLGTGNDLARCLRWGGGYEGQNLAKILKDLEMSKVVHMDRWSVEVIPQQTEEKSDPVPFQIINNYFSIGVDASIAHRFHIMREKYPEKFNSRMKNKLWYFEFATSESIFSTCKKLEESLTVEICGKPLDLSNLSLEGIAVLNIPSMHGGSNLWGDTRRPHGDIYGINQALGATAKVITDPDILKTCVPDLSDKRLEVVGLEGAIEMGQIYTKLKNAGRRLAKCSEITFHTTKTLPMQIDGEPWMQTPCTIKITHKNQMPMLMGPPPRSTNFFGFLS

As for `CC[C@H]1CN(C(C)c2ccc(C(C)(C)F)nc2)[C@H](CC)CN1c1cc(=O)n(C)c2cn(CC#N)nc12` (single isomer, unassigned) [Compound A46a], the figures for the IC50 against DGKα and against DGKζ were 406 nM and 6.4 nM, respectively.
For `CC[C@H]1CN(C(C)c2ccc(OC3CC3)cc2)[C@H](CC)CN1c1cc(=O)n(C)c2cn(CC#N)nc12` (stereo partly drawn) [Compound A32, 2-(7-((2S,5R)-4-(1-(4-cyclopropoxyphenyl)ethyl)-2,5-diethylpiperazin-1-yl)-4-methyl-5-oxo-4,5-dihydro-2H-pyrazolo[4,3-b]pyridin-2-yl)acetonitrile], the IC50 against DGKα stood at 183 nM; against DGKζ, 244 nM.
With `CC[C@H]1CN(C(C)c2ccc(OC(F)F)cc2)[C@H](CC)CN1c1cc(=O)n(C)c2cn(CC#N)nc12` (single isomer, unassigned) [Compound A19b], the results for the IC50 against DGKα and against DGKζ were 289 nM and 4900 nM, respectively.
Taken in the same sequence, the figures for `CC[C@H]1CN(C(C)c2ccc3nc(C)sc3n2)[C@H](CC)CN1c1nc(=O)n(C)c2cn(CC#N)nc12` (single isomer, unassigned) [Compound A129b] were 192 nM and 45 nM.
Turning to `CC(c1cc2c(cc1F)OCC(C)(C)O2)N1C[C@H](C)N(c2cc(=O)n(C)c3cn(CC#N)nc23)C[C@H]1C` (single isomer, unassigned) [Compound A179a], the figures for the IC50 on DGKα and at DGKζ were 15900 nM and 1410 nM, respectively.
Taken in the same sequence, the figures for `CC[C@H]1CN(C(C)c2ccc3scnc3c2F)[C@H](CC)CN1c1cc(=O)n(C)c2cn(CC#N)nc12` (single isomer, unassigned) [Compound A110b] were 10500 nM and 1720 nM.
The matching figures for `CC[C@H]1CN(C(C)c2cnc3ncsc3c2)[C@H](CC)CN1c1cc(=O)n(C)c2cn(CC#N)nc12` (single isomer, unassigned) [Compound A98a]: 5510 nM and 108 nM.
The matching figures for `Cc1cc2nc(C(C)N3C[C@H](C)N(c4cc(=O)n(C)c5cn(CC#N)nc45)C[C@H]3C)ccc2s1` (single isomer, unassigned) [Compound A155b]: 139 nM and 1970 nM.
With `CC[C@H]1CN(C(C)c2ccc(NC(C)=O)c(O)c2F)[C@H](CC)CN1c1cc(=O)n(C)c2cn(CC#N)nc12` (single isomer, unassigned) [Compound A87b], the IC50 at DGKα was 35200 nM; against DGKζ, greater than 10000 nM.
For `CC[C@H]1CN(C(C)c2ccn3nc(C)cc3n2)[C@H](CC)CN1c1nc(=O)n(C)c2cn(CC#N)nc12` (single isomer, unassigned) [Compound A157a], the IC50 at DGKα and against DGKζ was greater than 10000 nM in each case.
For `CC[C@H]1CN(C(C)c2ccc(C3CC3)cn2)[C@H](CC)CN1c1cc(=O)n(C)c2cn(CC#N)nc12` (stereo partly drawn) [Compound A52, 2-(7-((2S,5R)-4-(1-(5-cyclopropylpyridin-2-yl)ethyl)-2,5-diethylpiperazin-1-yl)-4-methyl-5-oxo-4,5-dihydro-2H-pyrazolo[4,3-b]pyridin-2-yl)acetonitrile], the IC50 on DGKα was 118 nM; against DGKζ, 99 nM.
Taken in the same sequence, the figures for `CC[C@H]1CN(C(C)c2ccc3cnncc3c2)[C@H](CC)CN1c1cc(=O)n(C)c2cn(CC#N)nc12` (single isomer, unassigned) [Compound A186b] were 1220 nM and greater than 10000 nM.
Consider `CC[C@H]1CN(C(C)c2ccc3ncsc3n2)[C@H](CC)CN1c1cc(=O)n(C)c2cn(CC#N)nc12` (single isomer, unassigned) [Compound A99a], for which the values for the IC50 on DGKα and at DGKζ were 1740 nM and 3520 nM, respectively.
Taken in the same sequence, the figures for `CC#CCn1cc2c(n1)c(N1C[C@@H](CC)N(C(C)c3cnc4ccccc4n3)C[C@@H]1CC)cc(=O)n2C` (single isomer, unassigned) [Compound A206a] were 480 nM and 8300 nM.
Taken in the same sequence, the figures for `CC[C@H]1CN(C(C)c2cnc(C3CC3)cc2F)[C@H](CC)CN1c1cc(=O)n(C)c2cn(CC#N)nc12` (single isomer, unassigned) [Compound A47b] were 3520 nM and 1120 nM.
The matching figures for `CC[C@@H]1CN(c2cc(=O)n(C)c3cn(CC#N)nc23)[C@@H](C)CN1C(C)c1ccc2cc(C)sc2n1` (stereo partly drawn) [Compound A131, 2-(7-((2S,5R)-5-ethyl-2-methyl-4-(1-(2-methylthieno[2,3-b]pyridin-6-yl)ethyl)piperazin-1-yl)-4-methyl-5-oxo-4,5-dihydro-2H-pyrazolo[4,3-b]pyridin-2-yl)acetonitrile]: 246 nM and 26 nM.
For the compound `CC[C@H]1CN(C(C)c2ccc(OC3CC3)nc2)[C@H](CC)CN1c1cc(=O)n(C)c2cn(CC#N)nc12` (stereo partly drawn) [Compound A37, 2-(7-((2S,5R)-4-(1-(6-cyclopropoxypyridin-3-yl)ethyl)-2,5-diethylpiperazin-1-yl)-4-methyl-5-oxo-4,5-dihydro-2H-pyrazolo[4,3-b]pyridin-2-yl)acetonitrile], the 50% inhibitory concentration (IC50) against DGKα amounted to 541 nM; on DGKζ, 202 nM.
The matching figures for `CC[C@H]1CN(C(C)c2ccc3ocnc3c2)[C@H](CC)CN1c1cc(=O)n(C)c2cn(CC#N)nc12` (stereo partly drawn) [Compound A105]: 58 nM and 157 nM.
The matching figures for `[2H]C([2H])([2H])n1c(=O)cc(N2C[C@@H](CC)N(C(C)c3ccc4nc(C)sc4n3)C[C@@H]2CC)c2nn(CC#N)cc21` (single isomer, unassigned) [Compound A134b]: 108 nM and 22 nM.
Taken in the same sequence, the figures for `CC[C@H]1CN(C(C)c2ccc3nc(COC)sc3n2)[C@H](CC)CN1c1cc(=O)n(C)c2cn(CC#N)nc12` (single isomer, unassigned) [Compound A143b] were 153 nM and 39 nM.
For the compound `CC[C@H]1CN(C(C)c2ccc3c(n2)OCO3)[C@H](CC)CN1c1cc(=O)n(C)c2cn(CC#N)nc12` (single isomer, unassigned) [Compound A75b], the results for the IC50 at DGKα and on DGKζ were 1110 nM and 5050 nM, respectively.
The matching figures for `CC[C@H]1CN(C(C)c2cc3sc(C)nc3cc2F)[C@H](CC)CN1c1nc(=O)n(C)c2cn(CC#N)nc12` (single isomer, unassigned) [Compound A128a]: 375 nM and 60 nM.
As to `CC[C@H]1CN(C(C)c2ccc(CN3CCC(OC)CC3)cc2)[C@H](CC)CN1c1cc(=O)n(C)c2cn(CC#N)nc12` (single isomer, unassigned) [Compound A189b], the IC50 against DGKα was determined as 11800 nM; against DGKζ, 8540 nM.
In the case of `CC[C@H]1CN(C(C)c2cc(F)c(C(=O)N(C)C)c(F)c2)[C@H](CC)CN1c1cc(=O)n(C)c2cn(CC#N)nc12` (single isomer, unassigned) [Compound A3a], the IC50 against DGKα is 13600 nM; on DGKζ it was 227 nM.
In the case of `CC[C@H]1CN(C(C)c2ccc(NC(C)=O)c(O)c2F)[C@H](CC)CN1c1cc(=O)n(C)c2cn(CC#N)nc12` (single isomer, unassigned) [Compound A87a], the values for the IC50 on DGKα and on DGKζ were 2010 nM and 2820 nM, respectively.
Turning to `CC[C@H]1CN(C(C)c2ccc3ncc(Cl)n3n2)[C@H](CC)CN1c1nc(=O)n(C)c2cn(CC#N)nc12` (single isomer, unassigned) [Compound A174b], the IC50 was 53 nM against DGKα and 8.9 nM against DGKζ.
For the compound `CC#CCn1cc2c(n1)c(N1C[C@@H](CC)N(C(C)c3ccc4nc(C)sc4c3)C[C@@H]1C)cc(=O)n2C` (single isomer, unassigned) [Compound A115a], the IC50 at DGKα amounted to 269 nM; on DGKζ, 431 nM.
With `CC[C@H]1CN(C(C)c2ccn3ccnc3c2)[C@H](CC)CN1c1cc(=O)n(C)c2cn(CC#N)nc12` (single isomer, unassigned) [Compound A80b], the values for the IC50 on DGKα and on DGKζ were 3040 nM and 6900 nM, respectively.
Taken in the same sequence, the figures for `CC[C@H]1CN(C(C)c2ccc3c(n2)CCO3)[C@H](CC)CN1c1cc(=O)n(C)c2cn(CC#N)nc12` (stereo partly drawn) [Compound A73, 2-(7-((2S,5R)-4-(1-(2,3-dihydrofuro[3,2-b]pyridin-5-yl)ethyl)-2,5-diethylpiperazin-1-yl)-4-methyl-5-oxo-4,5-dihydro-2H-pyrazolo[4,3-b]pyridin-2-yl)acetonitrile] were 91 nM and 126 nM.
Consider `CC[C@H]1CN(C(C)c2ccc3nc(C)sc3n2)[C@H](CC)CN1c1nc(=O)n(C)c2cn(CC#N)nc12` (single isomer, unassigned) [Compound A129a], for which the IC50 at DGKα came to 2100 nM; against DGKζ it was 626 nM.
`CC#CCn1cc2c(n1)c(N1C[C@@H](CC)N(C(C)c3ccc4nc(C)sc4n3)C[C@@H]1CC)cc(=O)n2C` (stereo partly drawn) [Compound A137]: the IC50 stood at 13 nM at DGKα and 118 nM against DGKζ.
Take `CC[C@H]1CN(C(C)c2ccc(OCCOC)cc2)[C@H](CC)CN1c1cc(=O)n(C)c2cn(CC#N)nc12` (stereo partly drawn) [Compound A11, 2-(7-((2S,5R)-2,5-diethyl-4-(1-(4-(2-methoxyethoxy)phenyl)ethyl)piperazin-1-yl)-4-methyl-5-obo-4,5-dihydro-2H-pyrazolo[4,3-b]pyridin-2-yl)acetonitrile]: the IC50 against DGKα is 79 nM; at DGKζ, 500 nM.
Taken in the same sequence, the figures for `CC[C@H]1CN(C(C)c2ccc3c(c2)OCO3)[C@H](CC)CN1c1cc(=O)n(C)c2cn(CC#N)nc12` (stereo partly drawn) [Compound A185, 2-(7-((2S,5R)4-(1-(benzo[d][1,3]dioxol-5-yl)ethyl)-2,5-diethylpiperazin-1-yl)-4-methyl-5-oxo-4,5-dihydro-2H-pyrazolo[4,3-b]pyridin-2-yl)acetonitrile] were 164 nM and 66.4 nM.

A word on the IC50: it is the concentration that inhibits the measured activity by half.

The record behind these values is US20250346597A1, “CONDENSED HETEROCYCLIC COMPOUNDS AS INHIBITOR OF DIACYLGLYCEROL KINASES” (BEONE MEDICINES I GMBH, priority 2023, published 2025).
